Reference: a melting point compilation (Tetko et al.; mined from patent text by program, amines drawn as free bases though some values may be those of a salt)

Structure (SMILES)	melting point
Nc1ccnc(-c2nc(=O)c3ccccc3s2)c1	208 °C
NP(N)(=O)NCCCBr	60 to 65 °C
CC1(C)CC2(CC(C)(C)N1c1nc(Cl)nc(N3CCOCC3)n1)OCCO2	154 to 156 °C
CCc1n[nH]c(CC)c1CCCCCCOc1cc(Cl)c(OC)cc1Cl	148 to 150 °C
CCCCCC(=O)c1c(CBr)n(C(=O)OC)c(=O)n1C(=O)OC	71 to 73 °C
COc1ccc(C2(O)CCNCC2)cc1	120 to 122 °C
CC(=O)NCC=C(c1ccc(-c2ccccc2)cc1)c1ccc(-c2ccccc2)cc1	246 to 249 °C
C#CCNC(=NCCSCc1ccc(CN(C)C)o1)NC#N	122 to 124 °C
Cn1c(-c2ccncc2)n[nH]c1=O	249 to 251 °C
COc1ccc(CNc2cc(Cn3c(C(=O)c4cc(C)cc(C)c4)c(C(C)C)c(=O)[nH]c3=O)cc(Cl)n2)cc1	211 to 212 °C
COc1ccc(O)c(C2C(=O)Nc3cccc(Br)c32)n1 (stereo not drawn)	149 to 152 °C
COc1cc2c(c3c1OC(C)(C)C3)C(c1ccc(=O)n(-c3cccc(-c4ccccn4)n3)c1)=NC(C)(C)C2	231 to 234 °C
CCCn1cc2c(C3C(=O)Nc4ccc(S(=O)(=O)N(C)C)cc43)nc(Cl)nc2n1 (stereo not drawn)	> 300 °C
CCN1C(=O)C(C)(C)C(=O)N(C)c2cc(CN(CCn3ccc4oc(C)cc4c3=O)Cc3n[nH]c4c(C)cccc34)ccc21	111 to 118 °C
O=C(OCCO)c1ccc(Cl)c([N+](=O)[O-])c1	102 to 104 °C
O=C(NC(Cc1ccc(OCC2CC2)cc1)C(=O)O)c1cn2cc(-c3ccc(Cl)cc3)ccc2n1 (stereo not drawn)	276 °C
CNC(=O)N1N=C(c2ccc([N+](=O)[O-])cc2)c2cc(OC)c(Br)cc2CC1C (stereo not drawn)	224 to 226 °C
CC(CCn1ccnc1)N=C1c2cccc3cccc(c23)N1C(c1ccccc1)c1ccccc1 (stereo not drawn)	55 to 64 °C
COc1ccc(-c2cc(CO)c(=O)n(CC3CCCC3)n2)cc1F	130 to 133 °C
OC1CSC(Oc2ccc(-c3cccnc3F)nc2Cl)C(O)C1O (stereo not drawn)	153 °C
COc1cc2c(cc1-c1c(C)nn(C)c1C)-c1c(-c3cccs3)c3c(n1CC2)C(=O)N(C(C)C)CCN(C(=O)OC(C)(C)C)C3	232 to 234 °C
CC(C)(C)OC(=O)CCCCCCCCCC[N+](=O)[O-]	39 to 42 °C
O=C(c1c[nH]c2ccc(Br)cc12)C(F)(F)F	254 °C
CC1CC(=O)NN=C1c1ccc(N2CCN(c3ncccn3)CC2)c(N)c1 (stereo not drawn)	220 to 221 °C
COc1ccc(-c2ccc(C(N)=O)cc2)cc1-c1ccc2nonc2c1	235 to 255 °C
COc1ccc(CNC(=O)C(=O)NCCc2ccccn2)c(OC)c1	123 to 124 °C

Further lines, results first:

melting point	Structure (SMILES)
176 °C	O=C(c1ccc(F)cc1)C1CCN(CCCCn2c(=O)[nH]c3ccccc32)CC1
280 to 281 °C	COc1ccc(Cn2c(=S)[nH]c(=O)c3[nH]c(C(C)C)nc32)cc1OCc1ccccc1
186 to 188 °C	O=C1Cc2cccc(Sc3ccc(Cl)cc3)c2N1
104 to 106 °C	C=CCNC(=O)C1CCc2cc(Oc3ccccc3)ccc2O1 (stereo not drawn)
104 to 105 °C	COc1cc(CCCC2SC(=O)NC2=O)ccc1OCc1csc(CCc2ccccc2)n1 (stereo not drawn)
236 °C	Cc1csc(-c2cc(=O)n(C)c3ccc(C(=O)c4ccc(Cl)cc4)cc23)n1
85.5 to 88 °C	O=Cc1cc(Cl)ccc1Sc1ccccc1F
71 to 74 °C	COc1cccc(Oc2ncccc2C(=O)NCc2ccccc2Cl)c1
123 to 125 °C	Cc1cccc(C)c1-c1cccc(C(N)=O)c1
197 to 198 °C	Cc1ccc(C(=O)Nc2c(NC(=O)CN3CCC4(CC3)OCCO4)ccc3c2C(=O)c2ccccc2C3=O)cc1
65 to 67 °C	CCCCOc1ccc(S(=O)(=O)N2CC(N(Cc3ccccc3)CC(O)COc3cccc4[nH]c5ccccc5c34)C2)cc1 (stereo not drawn)
189 to 191 °C	O=C(O)C(=O)CC(=O)c1cccn1Cc1ccc(-c2ccccc2)cc1
